# Reference: patent US20080153819A1, “METHODS FOR TREATING MACULAR EDEMA AND PATHOLOGIC OCULAR ANGIOGENESIS USING A NEUROPROTECTIVE AGENT AND A RECEPTOR TYROSINE KINASE INHIBITOR” (priority 2006, published 2008)
# B1: ranibizumab (antibody, chains of the INN, looked up, V domains shown)
# VH: EVQLVESGGGLVQPGGSLRLSCAASGYDFTHYGMNWVRQAPGKGLEWVGWINTYTGEPTYAADFKRRFTFSLDTSKSTAYLQMNSLRAEDTAVYYCAKYPYYYGTSHWYFDVWGQGTLVTVSS
# VL: DIQLTQSPSSLSASVGDRVTITCSASQDISNYLNWYQQKPGKAPKVLIYFTSSLHSGVPSRFSGSGSGTDFTLTISSLQPEDFATYYCQQYSTVPWTFGQGTKVEIK
# modifications: Fab
# Assays:
# [1] = tested on: preretinal neovascularization (NV); experiment: Rat OIR model, oral gavage; assay type: in vivo
# Description: Immediately following euthanasia, retinas from all rat pups were harvested, fixed in 10% neutral buffered formalin for 24 hours, subjected to ADPase staining, and fixed onto slides as whole mounts. Digital images were acquired from each retinal flat mount that was adequately prepared. Computerized image analysis was used to obtain a NV clockhour score from each readable sample. Each clockhour out of 12 total per retina was assessed for the presence or absence of preretinal NV. Statistical comparisons using median scores for NV clockhours from each treatment group were utilized in nonparametric analyses. Each noninjected pup represented one NV score by taking the average value of both eyes and was used in comparisons against each dosage group. Because the pups were randomly assigned and no difference was observed between oxygen-exposed control pups from all litters, the NV scores were combined for all treatment groups. P≦0.05 was considered statistically significant. METHODS: Pregnant Sprague-Dawley rats were received at 14 days gestation and subsequently gave birth on Day 22±1 of gestation. Immediately following parturition, pups were pooled and randomized into separate litters (n=17 pups/litter), placed into separate shoebox cages inside oxygen delivery chamber, and subjected to an oxygen-exposure profile from Day 0 to Day 14 postpartum. Litters were then placed into room air from Day 14/0 through Day 14/6 (days 14-20 postpartum). Additionally on Day 14/0, each pup was randomly assigned as oxygen-exposed controls, vehicle treated, or drug-treated at 1.5, 5, 10 mg/kg, p.o., BID. At Day 14/6 (20 days postpartum), all animals in both studies were euthanized and retina whole mounts were prepared as described in Example 1 above.
# [2] = tested on: laser-induced choroidal neovascularization (CNV); experiment: Laser-induced choroidal neovascularization (CNV) in the mouse, prevention, intravitreal injection; assay type: in vivo
# Description: (§1) METHODS: CNV was generated by laser-induced rupture of Bruch's membrane. Briefly, 4 to 5 week old male C57BL/6J mice were anesthetized using intraperitoneal administration of ketamine hydrochloride (100 mg/kg) and xylazine (5 mg/kg) and the pupils of both eyes dilated with topical ocular instillation of 1% tropicamide and 2.5% Mydfin®. One drop of topical cellulose (Gonioscopic®) was used to lubricate the cornea. A hand-held cover slip was applied to the cornea and used as a contact lens to aid visualization of the fundus. Three to four retinal burns were placed in randomly assigned eye (right or left eye for each mouse) using the Alcon 532 nm EyeLite laser with a slit lamp delivery system. The laser burns were used to generate a rupture in Bruch's membrane, which was indicated opthalmoscopically by the formation of a bubble under the retina. Only mice with laser burns that produced three bubbles per eye were included in the study. Burns were typically placed at the 3, 6, 9 or 12 o'clock positions in the posterior pole of the retina, avoiding the branch retinal arteries and veins.
# Each mouse was randomly assigned into one of the following treatment groups: noninjected controls, sham-injected controls, vehicle-injected mice, or one of three RTKi-injected groups. […]
# [3] = tested on: existing laser-induced choroidal neovascularization (CNV); experiment: Laser-induced CNV in the mouse, oral gavage, regression paradigm; assay type: in vivo; details: 3 mg/kg/day p.o. from day 7 after laser
# [4] = tested on: laser-induced choroidal neovascularization (CNV); experiment: Laser-induced CNV in the mouse, oral gavage, prevention paradigm; assay type: in vivo
# [5] = tested on: diabetes-induced retinal vascular permeability; experiment: Diabetes-induced retinal vascular permeability in the STZ rat model, oral gavage; assay type: in vivo
# Description: METHODS: Diabetes was induced in male Long-Evans rats with 65 mg/kg streptozotocin (STZ) after an overnight fast. Upon confirmation of diabetes (blood glucose >250 mg/dl), treatment was initiated by oral gavage. Non-diabetic (NDM) and diabetic (DM) rats received oral gavage of either vehicle or RTK inhibitor at 1.5 or 5 mg/kg/d BID. After 2 weeks, jugular vein catheters were implanted 1 day prior to experimentation for the infusion of indicator dye. Retinal vascular permeability, RVP, was measured using Evan's blue albumin permeation (45 mg/kg) after a 2 hour circulation period.
# [6] = tested on: preretinal neovascularization (NV); experiment: Rat model of oxygen-induced retinopathy (OIR), single intravitreal injection; assay type: in vivo; details: for % Inhibition (vs. vehicle-injected eye) of preretinal NV / Median NV (clockhour score): 5 μl intravitreal injection; for % Inhibition (vs. vehicle-injected eye) of preretinal NV: Day 14/6
# From the text: METHODS: Pregnant Sprague-Dawley rats were received at 14 days gestation and subsequently gave birth on Day 22±1 of gestation. Immediately following parturition, pups were pooled and randomized into separate litters (n=17 pups/litter), placed into separate shoebox cages inside oxygen delivery chamber, and subjected to an oxygen-exposure profile from Day 0-14 postpartum. Litters were then placed into room air from Day 14/0 through Day 14/6 (days 14-20 postpartum). Additionally on Day 14/0, each pup was randomly assigned as an oxygen-exposed control or into various treatment groups. For those randomized into an injection treatment group: one eye received a 5 μl intravitreal injection of 0.1%, 0.3%, 0.6%, or 1% RTKi and the contralateral eye received a 5 μl intravitreal injection of vehicle. At Day 14/6 (20 days postpartum), all animals in both studies were euthanized. Immediately following euthanasia, retinas from all rat pups were harvested, fixed in 10% neutral buffered formalin for 24 hours, subjected to ADPase staining, and fixed onto slides as whole mounts. Digital images were acquired from each retinal flat mount that was adequately prepared. Computerized image analysis was used to obtain a NV clockhour score from each readable sample. Each clockhour out of 12 total per retina was assessed for the presence or absence of preretinal NV. Statistical comparisons using median scores for NV clockhours from each treatment group were utilized in nonparametric analyses. Each noninjected pup represented one NV score by taking the average value of both eyes and was used in comparisons against each dosage group. Because the pups were randomly assigned and no difference was observed between oxygen-exposed control pups from all litters, the NV scores were combined for all treatment groups. P≦0.05 was considered statistically significant.
# [7] = tested on: existing laser-induced choroidal neovascularization (CNV); experiment: Regression of existing laser-induced CNV in the mouse, intravitreal injection at 7 days post-laser; assay type: in vivo
# Description: as §1, with “veins. […]” for “veins.”
# METHODS: CNV was generated by laser-induced rupture of Bruch's membrane as described above in Example 3. […] Choroidal flat mounts were analyzed as described above in Example 3.
# diabetic macular edema = details: topical ocular administration, Japanese patients with diabetic macular edema; cited from earlier work
# exudative AMD = details: Phase III, patients treated, at 24 months, up to; cited from earlier work
molecule,measurement,setting,value
"Cc1ccc(F)c(NC(=O)Nc2ccc(-c3cccc4[nH]nc(N)c34)cc2)c1 [Compound 86, N-[4-[3-amino-1H-indazol-4-yl]phenyl]-N′-(2-fluoro-5-methylphenyl)urea]",% Inhibition (vs vehicle-injected eye) of preretinal NV,"[1]; 3 mg/kg RTKi in PEG 400, p.o.",−1.4%
same,Median NV (clockhour score),"[1]; 3 mg/kg RTKi in PEG 400, p.o.",7.5
same,decrease in NV (in words),[1]; 3 mg/kg/day p.o.,did not have a significant decrease in NV
same,% Inhibition (vs vehicle-injected eye) of preretinal NV,"[1]; 20 mg/kg RTKi in PEG 400, p.o.",100%
same,Median NV (clockhour score),"[1]; 20 mg/kg RTKi in PEG 400, p.o.",0
same,inhibition of preretinal NV (in words),[1]; 20 mg/kg/day p.o.,complete inhibition of preretinal NV
same,"effect on preretinal NV (in words, FIG. 2)",[1]; oral gavage,prevents preretinal neovascularization (NV)
same,difference in CNV versus vehicle injected eyes (in words),"[2]; 0.3% RTKi, 5 ul intravitreal",marginal statistical difference
same,"effect on laser-induced CNV (in words, FIG. 3)",[2]; single intravitreal injection,inhibits laser-induced choroidal neovascularization (CNV)
same,regression of existing CNV (in words),[3],did not show a significant regression of existing CNV
same,inhibition of CNV (in words),"[4]; 20 mg/kg/d p.o., prevention paradigm",complete inhibition of CNV
same,"effect on laser-induced CNV (in words, FIG. 6)",[4]; oral gavage,inhibits laser-induced choroidal neovascularization (CNV)
same,RVP in non-diabetic rats (in words),[5]; NDM treated at 5 mg/kg/d oral gavage,unchanged
same,"Blood glucose levels and body weights, DM control versus DM treatment groups","[5]; oral gavage, DM rats",not different
same,systemic or ERG side effects,"[5]; oral, NDM and DM groups",no observed systemic or ERG side effects
same,tolerability,"[5]; oral, NDM and DM groups",well tolerated
same,% Inhibition (vs. vehicle-injected eye) of preretinal NV,[6]; 0.1% RTKi,37%
same,efficacy against preretinal NV (in words),"[6]; 0.1% treated eyes, intravitreal",Efficacy was not observed
same,Median NV (clockhour score),[6]; 0.3% RTKi,0
same,% Inhibition (vs. vehicle-injected eye) of preretinal NV,[6]; 0.3% RTKi,100%
same,Median NV (clockhour score),[6]; 0.6% RTKi,0
same,% Inhibition (vs. vehicle-injected eye) of preretinal NV,[6]; 0.6% RTKi,100%
same,Median NV (clockhour score),[6]; 1% RTKi,0
same,% Inhibition (vs. vehicle-injected eye) of preretinal NV,[6]; 1% RTKi,100%
same,"effect on preretinal NV (in words, FIG. 1)",[6]; single intravitreal injection,inhibits preretinal neovascularization (NV)
same,reduction of median CNV area at 14 days compared to CNV present at 7 days post-laser,[7]; 5 μl 3% RTKi intravitreal at day 7,41.0%
same,"effect on existing laser-induced CNV (in words, FIG. 4)",[7]; single intravitreal injection,induces regression of existing laser-induced choroidal neovascularization (CNV)
CC(C)NCC(O)COc1ccc(CCOCC2CC2)cc1 (centres unmarked) [betaxolol],effect on vision (in words),diabetic macular edema,stabilized vision
B1,patients with improved visual acuity,exudative AMD,35-40%
